Assay results: PMC4457528, “Identification of Novel Small Molecule Inhibitors of Oncogenic RET Kinase” (PLoS ONE, 2015)
Read-outs that look alike come from different tables or passages of the source.

Columns and labels:
Assay in all cases: KinomeScan kinase panel, single concentration 10 µM
Format in all cases: binding
KinomeScan kinase panel [1] = biological target: T1, KinomeScan kinase panel (Homo sapiens, UniProt P07949, M918T); conditions: read-out: score (%)
T1 construct: purchased DiscoveRx (KinomeScan)
T1 sequence (P07949 29-1114 M918T): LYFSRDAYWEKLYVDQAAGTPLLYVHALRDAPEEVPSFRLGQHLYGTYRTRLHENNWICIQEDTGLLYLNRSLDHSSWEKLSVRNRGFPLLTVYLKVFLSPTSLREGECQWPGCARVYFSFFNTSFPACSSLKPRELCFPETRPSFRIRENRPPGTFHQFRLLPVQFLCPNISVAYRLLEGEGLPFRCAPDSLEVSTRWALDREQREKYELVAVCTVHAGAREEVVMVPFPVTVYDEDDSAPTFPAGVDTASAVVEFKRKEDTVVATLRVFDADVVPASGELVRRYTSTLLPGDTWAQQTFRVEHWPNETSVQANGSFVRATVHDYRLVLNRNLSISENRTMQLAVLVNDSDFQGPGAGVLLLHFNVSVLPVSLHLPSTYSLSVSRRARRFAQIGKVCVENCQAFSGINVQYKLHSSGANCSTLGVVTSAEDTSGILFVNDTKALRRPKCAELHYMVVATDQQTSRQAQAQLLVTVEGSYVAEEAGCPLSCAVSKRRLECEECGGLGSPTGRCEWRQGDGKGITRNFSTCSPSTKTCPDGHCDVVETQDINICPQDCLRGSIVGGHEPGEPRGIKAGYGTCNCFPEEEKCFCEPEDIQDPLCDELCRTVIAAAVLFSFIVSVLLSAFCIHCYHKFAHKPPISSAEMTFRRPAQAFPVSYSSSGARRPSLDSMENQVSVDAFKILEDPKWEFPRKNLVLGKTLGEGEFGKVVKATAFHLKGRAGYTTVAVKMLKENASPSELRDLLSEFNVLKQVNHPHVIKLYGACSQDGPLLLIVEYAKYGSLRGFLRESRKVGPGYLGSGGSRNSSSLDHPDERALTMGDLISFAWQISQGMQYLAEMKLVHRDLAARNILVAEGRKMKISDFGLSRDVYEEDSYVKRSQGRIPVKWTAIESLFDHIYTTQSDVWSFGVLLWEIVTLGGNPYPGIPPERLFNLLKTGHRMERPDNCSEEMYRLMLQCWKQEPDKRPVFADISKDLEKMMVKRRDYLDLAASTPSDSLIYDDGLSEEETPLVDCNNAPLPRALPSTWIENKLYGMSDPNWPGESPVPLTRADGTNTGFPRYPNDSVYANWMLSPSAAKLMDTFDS

KinomeScan kinase panel [2] = biological target: T2, KinomeScan kinase panel (Homo sapiens, UniProt O15146); conditions: MUSK, 10 µM; read-out: score (%)
T2 construct: purchased DiscoveRx (KinomeScan)
T2 sequence (O15146 24-869): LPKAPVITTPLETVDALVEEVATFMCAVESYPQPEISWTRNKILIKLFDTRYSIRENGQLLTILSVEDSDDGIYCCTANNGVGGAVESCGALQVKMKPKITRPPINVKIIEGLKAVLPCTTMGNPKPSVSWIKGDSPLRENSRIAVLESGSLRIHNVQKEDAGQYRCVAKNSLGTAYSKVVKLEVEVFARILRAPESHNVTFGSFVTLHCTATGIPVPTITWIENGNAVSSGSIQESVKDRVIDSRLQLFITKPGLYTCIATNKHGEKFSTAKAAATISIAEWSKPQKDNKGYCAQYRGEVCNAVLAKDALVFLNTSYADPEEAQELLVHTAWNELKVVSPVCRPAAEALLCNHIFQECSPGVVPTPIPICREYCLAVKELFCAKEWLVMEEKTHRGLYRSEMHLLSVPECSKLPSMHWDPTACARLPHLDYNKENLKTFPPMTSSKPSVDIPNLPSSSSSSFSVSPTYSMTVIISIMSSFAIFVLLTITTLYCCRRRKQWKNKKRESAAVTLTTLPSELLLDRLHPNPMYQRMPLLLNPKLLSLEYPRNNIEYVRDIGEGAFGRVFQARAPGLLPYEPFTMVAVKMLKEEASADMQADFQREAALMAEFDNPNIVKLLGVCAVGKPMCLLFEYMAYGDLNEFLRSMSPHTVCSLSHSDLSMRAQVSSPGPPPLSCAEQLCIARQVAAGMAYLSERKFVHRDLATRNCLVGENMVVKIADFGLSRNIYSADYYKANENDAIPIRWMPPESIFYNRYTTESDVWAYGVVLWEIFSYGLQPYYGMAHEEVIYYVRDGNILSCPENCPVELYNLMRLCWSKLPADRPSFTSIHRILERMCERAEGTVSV

KinomeScan kinase panel [3] = biological target: T3, KinomeScan kinase panel (Homo sapiens, UniProt Q9UM73); conditions: ALK, 10 µM; read-out: score (%)
T3 construct: purchased DiscoveRx (KinomeScan)
T3 sequence (Q9UM73 19-1620): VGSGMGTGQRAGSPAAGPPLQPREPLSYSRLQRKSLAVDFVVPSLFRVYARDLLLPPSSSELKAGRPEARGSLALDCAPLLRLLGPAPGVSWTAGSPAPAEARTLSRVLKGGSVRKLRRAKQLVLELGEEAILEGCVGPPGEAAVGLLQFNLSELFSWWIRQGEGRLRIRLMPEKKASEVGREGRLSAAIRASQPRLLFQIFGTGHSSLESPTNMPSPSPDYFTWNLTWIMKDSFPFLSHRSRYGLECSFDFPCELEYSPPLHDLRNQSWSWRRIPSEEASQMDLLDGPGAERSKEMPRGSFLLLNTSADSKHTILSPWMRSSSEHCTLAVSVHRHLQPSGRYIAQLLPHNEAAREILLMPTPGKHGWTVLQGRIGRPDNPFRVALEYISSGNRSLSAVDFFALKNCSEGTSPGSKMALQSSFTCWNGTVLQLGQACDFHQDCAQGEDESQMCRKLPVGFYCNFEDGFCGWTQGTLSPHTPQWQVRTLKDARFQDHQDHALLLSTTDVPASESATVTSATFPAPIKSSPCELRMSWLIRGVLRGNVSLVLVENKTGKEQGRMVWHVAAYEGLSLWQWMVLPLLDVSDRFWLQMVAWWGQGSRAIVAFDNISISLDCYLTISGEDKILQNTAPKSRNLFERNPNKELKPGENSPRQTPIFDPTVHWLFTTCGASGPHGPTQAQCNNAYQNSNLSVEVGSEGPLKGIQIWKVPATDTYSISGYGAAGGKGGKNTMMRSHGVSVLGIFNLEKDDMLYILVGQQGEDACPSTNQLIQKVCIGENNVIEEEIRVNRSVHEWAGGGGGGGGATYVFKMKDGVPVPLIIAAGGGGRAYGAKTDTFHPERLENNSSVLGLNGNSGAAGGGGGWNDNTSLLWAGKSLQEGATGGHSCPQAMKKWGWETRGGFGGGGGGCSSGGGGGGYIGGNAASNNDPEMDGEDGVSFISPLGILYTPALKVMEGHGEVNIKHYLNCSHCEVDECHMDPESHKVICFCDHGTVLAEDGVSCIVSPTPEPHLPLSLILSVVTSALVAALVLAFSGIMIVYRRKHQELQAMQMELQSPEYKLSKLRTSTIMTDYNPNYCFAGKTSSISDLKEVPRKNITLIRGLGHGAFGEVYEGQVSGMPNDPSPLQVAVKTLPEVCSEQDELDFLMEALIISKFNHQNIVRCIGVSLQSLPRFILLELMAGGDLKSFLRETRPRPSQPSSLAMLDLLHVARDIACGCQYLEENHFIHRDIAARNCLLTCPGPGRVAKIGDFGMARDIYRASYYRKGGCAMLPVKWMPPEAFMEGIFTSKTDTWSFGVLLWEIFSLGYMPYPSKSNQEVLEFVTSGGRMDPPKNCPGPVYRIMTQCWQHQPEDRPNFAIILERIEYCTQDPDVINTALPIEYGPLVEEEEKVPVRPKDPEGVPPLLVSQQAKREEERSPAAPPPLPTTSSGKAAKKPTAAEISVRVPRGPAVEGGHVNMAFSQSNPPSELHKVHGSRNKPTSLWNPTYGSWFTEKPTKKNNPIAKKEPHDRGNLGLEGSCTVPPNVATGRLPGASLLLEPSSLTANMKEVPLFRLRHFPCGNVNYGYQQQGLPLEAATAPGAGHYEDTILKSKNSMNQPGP

KinomeScan kinase panel [4] = biological target: T4, KinomeScan kinase panel (Homo sapiens, UniProt O75914); conditions: PAK3, 10 µM; read-out: score (%)
T4 construct: purchased DiscoveRx (KinomeScan)
T4 sequence (O75914 whole entry): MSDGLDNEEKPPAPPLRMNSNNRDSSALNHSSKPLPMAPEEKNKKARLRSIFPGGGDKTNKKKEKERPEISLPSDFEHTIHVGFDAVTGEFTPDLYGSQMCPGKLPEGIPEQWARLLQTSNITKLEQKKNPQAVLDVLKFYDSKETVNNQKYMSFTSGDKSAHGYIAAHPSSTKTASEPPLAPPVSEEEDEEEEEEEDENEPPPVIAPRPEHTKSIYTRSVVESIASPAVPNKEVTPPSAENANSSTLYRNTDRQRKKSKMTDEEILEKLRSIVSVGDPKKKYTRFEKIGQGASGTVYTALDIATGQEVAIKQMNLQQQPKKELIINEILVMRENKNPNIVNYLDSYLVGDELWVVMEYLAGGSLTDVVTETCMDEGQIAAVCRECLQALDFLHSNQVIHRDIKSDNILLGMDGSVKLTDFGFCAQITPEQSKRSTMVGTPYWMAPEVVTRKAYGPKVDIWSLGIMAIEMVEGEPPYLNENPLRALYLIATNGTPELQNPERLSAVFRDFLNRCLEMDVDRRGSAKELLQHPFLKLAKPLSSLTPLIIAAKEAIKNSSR

KinomeScan kinase panel [5] = biological target: T5, KinomeScan kinase panel (Homo sapiens, UniProt O60285); conditions: ARK5, 10 µM
T5 construct: purchased DiscoveRx (KinomeScan)
T5 sequence (O60285 1-661): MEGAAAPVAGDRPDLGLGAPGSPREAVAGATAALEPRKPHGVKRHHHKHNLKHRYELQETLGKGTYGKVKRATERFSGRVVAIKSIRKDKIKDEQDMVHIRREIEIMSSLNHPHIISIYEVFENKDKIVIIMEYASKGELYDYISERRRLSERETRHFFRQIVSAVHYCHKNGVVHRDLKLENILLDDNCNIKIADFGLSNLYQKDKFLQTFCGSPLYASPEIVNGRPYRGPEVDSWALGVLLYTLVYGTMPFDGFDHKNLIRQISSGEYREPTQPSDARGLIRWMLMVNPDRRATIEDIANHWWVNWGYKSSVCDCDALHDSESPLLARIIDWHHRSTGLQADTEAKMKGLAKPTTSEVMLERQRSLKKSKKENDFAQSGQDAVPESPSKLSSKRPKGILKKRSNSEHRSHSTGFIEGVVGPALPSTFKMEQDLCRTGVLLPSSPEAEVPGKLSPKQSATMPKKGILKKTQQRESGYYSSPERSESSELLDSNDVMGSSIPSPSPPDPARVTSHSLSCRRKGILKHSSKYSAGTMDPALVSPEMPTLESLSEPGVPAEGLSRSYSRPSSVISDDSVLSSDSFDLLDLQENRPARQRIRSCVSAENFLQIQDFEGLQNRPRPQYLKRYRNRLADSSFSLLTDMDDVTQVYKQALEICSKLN

| remaining binding at 10 µM (KinomeScan kinase panel [1]; RET(M918T), 10 µM) | Compound | remaining binding at 10 µM (KinomeScan kinase panel [1]) | remaining binding at 10 µM (KinomeScan kinase panel [2]) | remaining binding at 10 µM (KinomeScan kinase panel [3]) | remaining binding at 10 µM (KinomeScan kinase panel [4]) | score (%) (KinomeScan kinase panel [5]) | remaining binding at 10 µM (KinomeScan kinase panel [1]; kinase RET(M918T), 10 µM) |
| --- | --- | --- | --- | --- | --- | --- | --- |
| – | CCN1CCN(Cc2ccc(NC(=O)c3ccc(C)c(NC(=O)c4cncc(-c5cccs5)c4)c3)cc2C(F)(F)F)CC1 [ALW-II-41-27] | 0% | 0.1% | > 30% | > 30% | nb (Hits values higher than 30% were considered negative (no binding: nb)) | – |
| 0% | CCN1CCN(Cc2ccc(NC(=O)c3ccc(C)c(/C=C/c4cnc5[nH]ccc5c4Cl)c3)cc2C(F)(F)F)CC1 [HG-6-63-01, (E)-3-(2-(4-chloro-1H-pyrrolo[2,3-b]pyridin-5-yl)vinyl)-N-(4-((4-ethylpiperazin-1-yl)methyl)-3-(trifluoromethyl)phenyl)-4-methylbenzamide] | – | 0.05% | > 30% | 30% | nb (Hits values higher than 30% were considered negative (no binding: nb)) | – |
| – | CCN1CCN(Cc2ccc(NC(=O)c3ccc(C)c(C#Cc4cccnc4)c3)cc2C(F)(F)F)CC1 [XMD15-44] | – | 0.05% | 23% | 3.3% | nb (Hits values higher than 30% were considered negative (no binding: nb)) | 0% |
